# Reference: PubChem BioAssay AID1671332
# pIC50: −log10 of the molar value.
# Biological target: Serine/threonine-protein kinase Nek7 (Homo sapiens) (UniProt Q8TDX7)
# Experiment: NEK7 kinase inhibitors, dose response, biochemical, Z'-LYTE FRET, direct format, recombinant human (AID 1671332)
# Conditions: Z'-LYTE FRET kinase activity
# Sequence of Serine/threonine-protein kinase Nek7 (Homo sapiens) (Q8TDX7 whole entry, looked up): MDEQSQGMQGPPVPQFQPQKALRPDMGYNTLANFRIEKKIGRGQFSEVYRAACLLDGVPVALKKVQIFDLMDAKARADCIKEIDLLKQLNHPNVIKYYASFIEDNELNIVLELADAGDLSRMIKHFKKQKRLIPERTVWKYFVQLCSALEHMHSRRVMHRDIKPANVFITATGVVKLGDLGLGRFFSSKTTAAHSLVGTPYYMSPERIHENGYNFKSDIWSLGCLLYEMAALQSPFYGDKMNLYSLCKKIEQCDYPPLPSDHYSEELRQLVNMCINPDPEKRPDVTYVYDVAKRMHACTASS
smiles,measurement,value
CN1C(=O)C2(Cc3cn(C45CC67SSC(CO)(C(=O)N6C4Nc4ccccc45)N(C)C7=O)c4ccccc34)SSC1(CO)C(=O)N2C (stereo unspecified),pIC50,6.56
